From publication PMC10313052, “Filarial DAF-12 sense the host serum to resume iL3 development during infection” (PLOS Pathogens, 2023)
Entries after “also recorded” stand apart in the source; their conditions may differ.

How the values were obtained:
DimDAF-12 = DimDAF-12 (Dirofilaria immitis, UniProt A0A7D0JJL8); experiment: cell-based; type: cell-based
CelDAF-12 = molecular target: T1, CelDAF-12 (Caenorhabditis elegans, UniProt G5EFF5); experiment: cell-based; type: cell-based
T1 construct: fusing the LBD of the receptor of interest (Hco, Cel, Dim or BmaDAF12) and the DBD of GAL4; expressed in transfected cells; host or cells: NIH3T3
T1 sequence (G5EFF5 516-753 limits assumed): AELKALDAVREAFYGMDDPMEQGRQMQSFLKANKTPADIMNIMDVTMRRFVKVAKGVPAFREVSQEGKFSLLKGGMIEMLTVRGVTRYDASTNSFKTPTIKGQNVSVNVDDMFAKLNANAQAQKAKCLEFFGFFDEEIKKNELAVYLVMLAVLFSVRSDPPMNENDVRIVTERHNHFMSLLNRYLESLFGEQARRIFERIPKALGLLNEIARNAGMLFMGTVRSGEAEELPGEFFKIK

HcoDAF-12 = molecular target: T2, HcoDAF-12 (Haemonchus contortus, UniProt A0A7I4Z123); experiment: Cell-based transactivation assay, Gal4-HcoDAF-12_LBD luciferase reporter in NIH3T3 cells
T2 sequence (A0A7I4Z123 444-684): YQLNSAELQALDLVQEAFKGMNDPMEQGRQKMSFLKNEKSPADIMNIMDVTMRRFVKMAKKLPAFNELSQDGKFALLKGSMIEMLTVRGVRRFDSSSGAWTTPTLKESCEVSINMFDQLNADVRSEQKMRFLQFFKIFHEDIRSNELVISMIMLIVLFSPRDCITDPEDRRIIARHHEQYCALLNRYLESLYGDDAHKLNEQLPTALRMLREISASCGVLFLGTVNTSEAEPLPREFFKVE

FXR = settings: 10μM, 24 hours
D. immitis iL3 = settings: 50 µM
[1] = concentrations well above the relevant physiological values
[2] = NIH3T3, 24 h, technical triplicates, Fig 2, read-out: EC50 (logEC50 SE) (converted)

DimDAF-12, sequence (A0A7D0JJL8 587-828 limits assumed): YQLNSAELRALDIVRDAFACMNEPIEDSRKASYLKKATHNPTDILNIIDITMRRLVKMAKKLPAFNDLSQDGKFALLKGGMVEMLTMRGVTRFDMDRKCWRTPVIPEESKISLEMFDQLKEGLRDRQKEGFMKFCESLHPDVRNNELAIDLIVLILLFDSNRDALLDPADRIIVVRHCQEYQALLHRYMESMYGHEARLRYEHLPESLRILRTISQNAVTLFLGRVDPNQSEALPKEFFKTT

For 3β-hydroxy-5-cholestenoic acid, the “Activation of DimDAF-12 by spiked charcoal-stripped mouse serum” value (DimDAF-12) was “failed to activate; also recorded: did not activate”, the “Activation of CelDAF-12 in dose-response” value (CelDAF-12; [1]) was “failed to activate” and the “Activation of HcoDAF-12 in dose-response” value (HcoDAF-12; [1]) was “failed to activate”. For the same molecule, the “Activation of FXR” value (FXR) was “do not activate”.

For C[C@H](CCC[C@@H](C)[C@H]1CC[C@H]2[C@@H]3CCC4=CC(=O)CC[C@]4(C)[C@H]3CC[C@]12C)C(=O)O [(25R)-Δ4-DA], the “Activation of DimDAF-12 by spiked charcoal-stripped mouse serum” value (DimDAF-12) was “partially complement; also recorded: partially restores; also recorded: partial restoration”.

In the case of CC(=O)N1CCN(c2ccc(OCC3COC(Cn4ccnc4)(c4ccc(Cl)cc4Cl)O3)cc2)CC1 (stereo not drawn) [ketoconazole], the “Survival of iL3” value (D. immitis iL3) is reported as “all iL3 died”.

For CC(CCCC(C)C1CCC2C3=CCC4CC(=O)CCC4(C)C3CCC21C)C(=O)O [Δ7-dafachronic acid, (25S)-Δ7-dafachronic acid], the EC50 (DimDAF-12) was 1 nM, the EC50 (CelDAF-12; [2]) was 11 nM and the EC50 (HcoDAF-12; [2]) was 12 nM.
